Legend:
Format in all cases: functional, cell-based
[1] = target: T1, Solute carrier organic anion transporter family member 1A3 (Rattus norvegicus, UniProt P70502); assay: TP_TRANSPORTER: inhibition of MTX uptake (MTX: 0.026 uM, Folic acid: 100 uM) in OAT-K1-expressing LLC-PK1 cells; conditions: pig, llc-pk1, 100 µM
T1 sequence (P70502 whole entry): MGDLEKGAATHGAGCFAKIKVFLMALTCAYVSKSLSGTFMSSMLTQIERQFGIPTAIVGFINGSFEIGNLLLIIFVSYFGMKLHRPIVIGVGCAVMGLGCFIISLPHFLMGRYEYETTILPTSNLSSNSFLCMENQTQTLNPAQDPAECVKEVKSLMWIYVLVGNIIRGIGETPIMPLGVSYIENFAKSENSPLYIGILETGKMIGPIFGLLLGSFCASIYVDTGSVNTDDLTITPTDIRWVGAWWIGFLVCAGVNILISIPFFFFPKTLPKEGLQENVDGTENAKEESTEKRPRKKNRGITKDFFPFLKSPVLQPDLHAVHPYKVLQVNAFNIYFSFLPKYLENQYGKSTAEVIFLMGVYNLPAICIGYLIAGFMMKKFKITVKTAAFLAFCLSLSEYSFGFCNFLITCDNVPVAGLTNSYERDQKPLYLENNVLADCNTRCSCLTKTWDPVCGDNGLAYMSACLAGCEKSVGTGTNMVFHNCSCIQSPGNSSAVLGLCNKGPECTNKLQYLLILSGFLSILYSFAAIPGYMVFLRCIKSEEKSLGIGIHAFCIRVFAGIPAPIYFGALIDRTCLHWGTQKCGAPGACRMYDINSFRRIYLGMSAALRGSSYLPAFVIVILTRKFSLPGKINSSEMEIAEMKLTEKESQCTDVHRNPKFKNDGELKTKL

[2] = target: T1, Solute carrier organic anion transporter family member 1A3; assay: TP_TRANSPORTER: inhibition of MTX uptake (MTX: 0.026 uM, BSP: 100 uM) in OAT-K1-expressing LLC-PK1 cells; conditions: pig, llc-pk1, 100 µM
[3] = substrate: CN(Cc1cnc2nc(N)nc(N)c2n1)c1ccc(C(=O)N[C@@H](CCC(=O)O)C(=O)O)cc1; assay: TP_TRANSPORTER: uptake in OAT-K1-expressing LLC-PK1 cells

**Q.** `Nc1nc2ncc(CNc3ccc(C(=O)N[C@@H](CCC(=O)O)C(=O)O)cc3)nc2c(=O)[nH]1` [FOLIC ACID] was tested. Which Activity [1] did it give?
**A.** The Activity was “inhibitor [(at a rough estimate) 35 % of control]”.

**Q.** How did the Activity [2] turn out when `O=C1OC(c2ccc(O)c(S(=O)(=O)[O-])c2)(c2ccc(O)c(S(=O)(=O)[O-])c2)c2c(Br)c(Br)c(Br)c(Br)c21.[Na+].[Na+]` [SULFOBROMOPHTHALEIN SODIUM] was run?
**A.** The Activity was “inhibitor [(at a rough estimate) 35 % of control]”.

B1: Solute carrier organic anion transporter family member 1A3 (Rattus norvegicus) (protein)
chain: T1 sequence (P70502 whole entry)
**Q.** How did the Km [3] turn out when B1 was run?
**A.** The Km was 1 µM.

Source: ChEMBL document CHEMBL2074084, “Cloning and functional characterization of a novel rat organic anion transporter mediating basolateral uptake of methotrexate in the kidney” (J Biol Chem, 1996)
